Source: PubChem BioAssay (NCI)
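Protocol summary: plate cells (96-well), add compound at 5 concentrations, incubate 48 h, interpolate endpoints linearly. TGI marks complete inhibition of growth.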

Legend:
Assay in all cases: inhibition of tumour cell growth, NCI panel, 48 h
OVCAR-4 ovarian = tested on: OVCAR-4 ovarian
HOP-18 NSCLC = tested on: HOP-18 NSCLC
RPMI-8226 leukemia = tested on: RPMI-8226 leukemia
786-0 renal = tested on: 786-0 renal
SF-268 CNS = tested on: SF-268 CNS
SK-MEL-28 melanoma = tested on: SK-MEL-28 melanoma
OVCAR-8 ovarian = tested on: OVCAR-8 ovarian
HOP-92 NSCLC = tested on: HOP-92 NSCLC
A498 renal = tested on: A498 renal
SR leukemia = tested on: SR leukemia
LXFL 529 NSCLC = tested on: LXFL 529 NSCLC
HCT-116 colon = tested on: HCT-116 colon
SN12C renal = tested on: SN12C renal
OVCAR-3 ovarian = tested on: OVCAR-3 ovarian
UACC-62 melanoma = tested on: UACC-62 melanoma
K-562 leukemia = tested on: K-562 leukemia
U251 CNS = tested on: U251 CNS
MOLT-4 leukemia = tested on: MOLT-4 leukemia
NCI-H460 lung = tested on: NCI-H460 lung
CCRF-CEM leukemia = tested on: CCRF-CEM leukemia
UO-31 renal = tested on: UO-31 renal
SW-620 colon = tested on: SW-620 colon
UACC-257 melanoma = tested on: UACC-257 melanoma
RXF 393 renal = tested on: RXF 393 renal
SNB-19 CNS = tested on: SNB-19 CNS
SF-295 CNS = tested on: SF-295 CNS
SNB-78 CNS = tested on: SNB-78 CNS
OVCAR-5 ovarian = tested on: OVCAR-5 ovarian
NCI-H226 lung = tested on: NCI-H226 lung
KM20L2 colon = tested on: KM20L2 colon
RXF-631 renal = tested on: RXF-631 renal
HT29 colon = tested on: HT29 colon
ACHN renal = tested on: ACHN renal
HOP-62 NSCLC = tested on: HOP-62 NSCLC
M19-MEL melanoma = tested on: M19-MEL melanoma
MALME-3M melanoma = tested on: MALME-3M melanoma
KM12 colon = tested on: KM12 colon
HCT-15 colon = tested on: HCT-15 colon
DMS 114 small cell lung = tested on: DMS 114 small cell lung
CAKI-1 renal = tested on: CAKI-1 renal
EKVX NSCLC = tested on: EKVX NSCLC
SNB-75 CNS = tested on: SNB-75 CNS
HL-60(TB) leukemia = tested on: HL-60(TB) leukemia
XF 498 CNS = tested on: XF 498 CNS
M14 melanoma = tested on: M14 melanoma
TK-10 renal = tested on: TK-10 renal
LOX IMVI melanoma = tested on: LOX IMVI melanoma
COLO 205 colon = tested on: COLO 205 colon
SK-MEL-2 melanoma = tested on: SK-MEL-2 melanoma
A549 NSCLC = tested on: A549 NSCLC
HCC-2998 colon = tested on: HCC-2998 colon
SK-OV-3 ovarian = tested on: SK-OV-3 ovarian
SF-539 CNS = tested on: SF-539 CNS
NCI-H23 lung = tested on: NCI-H23 lung
NCI-H522 lung = tested on: NCI-H522 lung
SK-MEL-5 melanoma = tested on: SK-MEL-5 melanoma
IGROV1 ovarian = tested on: IGROV1 ovarian
DMS 273 small cell lung = tested on: DMS 273 small cell lung

N#CSCc1nc2ccc(Cl)cc2c(-c2ccccc2)[n+]1[O-]
TGI (OVCAR-4 ovarian): 55.2 µM
TGI (HOP-18 NSCLC): 33.6 µM
TGI (RPMI-8226 leukemia): 54.4 µM
TGI (786-0 renal): 32.1 µM
TGI (SF-268 CNS): 61.7 µM
TGI (SK-MEL-28 melanoma): 27.7 µM
TGI (OVCAR-8 ovarian): 38.5 µM
TGI (HOP-92 NSCLC): 34.7 µM
TGI (A498 renal): > 100 µM
TGI (SR leukemia): 76.1 µM
TGI (LXFL 529 NSCLC): 26.8 µM
TGI (HCT-116 colon): 39.7 µM
TGI (SN12C renal): 39.5 µM
TGI (OVCAR-3 ovarian): 44.4 µM
TGI (UACC-62 melanoma): 36.9 µM
TGI (K-562 leukemia): 87.7 µM
TGI (U251 CNS): 80.6 µM
TGI (MOLT-4 leukemia): 41.6 µM
TGI (NCI-H460 lung): > 100 µM
TGI (CCRF-CEM leukemia): 39.2 µM
TGI (UO-31 renal): 32.7 µM
TGI (SW-620 colon): 30.2 µM
TGI (UACC-257 melanoma): > 100 µM
TGI (RXF 393 renal): 26.4 µM
TGI (SNB-19 CNS): > 100 µM
TGI (SF-295 CNS): > 100 µM
TGI (SNB-78 CNS): > 100 µM
TGI (OVCAR-5 ovarian): 39 µM
TGI (NCI-H226 lung): 64.5 µM
TGI (KM20L2 colon): 30.8 µM
TGI (RXF-631 renal): > 100 µM
TGI (HT29 colon): 35 µM
TGI (ACHN renal): 30.5 µM
TGI (HOP-62 NSCLC): > 100 µM
TGI (M19-MEL melanoma): > 100 µM
TGI (MALME-3M melanoma): 62.5 µM
TGI (KM12 colon): 51.9 µM
TGI (HCT-15 colon): 32.5 µM
TGI (DMS 114 small cell lung): 72.5 µM
TGI (CAKI-1 renal): 47.9 µM
TGI (EKVX NSCLC): 40.9 µM
TGI (SNB-75 CNS): 88.2 µM
TGI (HL-60(TB) leukemia): 42.9 µM
TGI (XF 498 CNS): 33 µM
TGI (M14 melanoma): 42.1 µM
TGI (TK-10 renal): > 100 µM
TGI (LOX IMVI melanoma): 31.9 µM
TGI (COLO 205 colon): > 100 µM
TGI (SK-MEL-2 melanoma): 42.3 µM
TGI (A549 NSCLC): > 100 µM
TGI (HCC-2998 colon): 29.1 µM

COc1ccc(C2SCc3nc4ccccc4n32)cc1 (stereo unspecified)
TGI (HOP-18 NSCLC): > 100 µM
TGI (RPMI-8226 leukemia): 13.7 µM
TGI (SK-OV-3 ovarian): > 100 µM
TGI (SF-268 CNS): > 100 µM
TGI (SK-MEL-28 melanoma): > 100 µM
TGI (OVCAR-8 ovarian): > 100 µM
TGI (HOP-92 NSCLC): 8.75 µM
TGI (SF-539 CNS): > 100 µM
TGI (A498 renal): 65.8 µM
TGI (LXFL 529 NSCLC): > 100 µM
TGI (SN12C renal): > 100 µM
TGI (OVCAR-3 ovarian): > 100 µM
TGI (NCI-H23 lung): > 100 µM
TGI (UACC-62 melanoma): > 100 µM
TGI (K-562 leukemia): > 100 µM
TGI (U251 CNS): 85.4 µM
TGI (MOLT-4 leukemia): 45.5 µM
TGI (NCI-H460 lung): > 100 µM
TGI (CCRF-CEM leukemia): > 100 µM
TGI (UO-31 renal): 66.5 µM
TGI (SW-620 colon): > 100 µM
TGI (SNB-19 CNS): > 100 µM
TGI (NCI-H522 lung): 5.42 µM
TGI (SF-295 CNS): > 100 µM
TGI (SNB-78 CNS): > 100 µM
TGI (NCI-H226 lung): > 100 µM
TGI (KM20L2 colon): 6.25 µM
TGI (SK-MEL-5 melanoma): 14.9 µM
TGI (RXF-631 renal): > 100 µM
TGI (IGROV1 ovarian): > 100 µM
TGI (HT29 colon): 7.02 µM
TGI (ACHN renal): > 100 µM
TGI (M19-MEL melanoma): > 100 µM
TGI (MALME-3M melanoma): > 100 µM
TGI (HCT-15 colon): > 100 µM
TGI (DMS 114 small cell lung): 8.07 µM
TGI (CAKI-1 renal): > 100 µM
TGI (EKVX NSCLC): > 100 µM
TGI (DMS 273 small cell lung): 53.6 µM
TGI (SNB-75 CNS): 4.54 µM
TGI (HL-60(TB) leukemia): 5.43 µM
TGI (XF 498 CNS): 4.13 µM
TGI (M14 melanoma): > 100 µM
TGI (TK-10 renal): > 100 µM
TGI (LOX IMVI melanoma): > 100 µM
TGI (SK-MEL-2 melanoma): > 100 µM

COc1cc2c(cc1OC)C(C#N)(Cc1ccccc1)N(C(=O)c1ccccc1)C=C2 (stereo unspecified)
TGI (HOP-18 NSCLC): > 100 µM
TGI (RPMI-8226 leukemia): > 100 µM
TGI (786-0 renal): > 100 µM
TGI (SK-OV-3 ovarian): > 100 µM
TGI (SF-268 CNS): > 100 µM
TGI (SK-MEL-28 melanoma): > 100 µM
TGI (OVCAR-8 ovarian): > 100 µM
TGI (HOP-92 NSCLC): > 100 µM
TGI (SF-539 CNS): > 100 µM
TGI (SR leukemia): > 100 µM
TGI (LXFL 529 NSCLC): > 100 µM
TGI (HCT-116 colon): > 100 µM
TGI (SN12C renal): > 100 µM
TGI (OVCAR-3 ovarian): > 100 µM
TGI (NCI-H23 lung): > 100 µM
TGI (UACC-62 melanoma): > 100 µM
TGI (K-562 leukemia): > 100 µM
TGI (U251 CNS): > 100 µM
TGI (MOLT-4 leukemia): > 100 µM
TGI (NCI-H460 lung): > 100 µM
TGI (CCRF-CEM leukemia): > 100 µM
TGI (UO-31 renal): > 100 µM
TGI (SW-620 colon): > 100 µM
TGI (UACC-257 melanoma): > 100 µM
TGI (RXF 393 renal): 76.1 µM
TGI (SNB-19 CNS): > 100 µM
TGI (NCI-H522 lung): > 100 µM
TGI (SF-295 CNS): > 100 µM
TGI (SNB-78 CNS): > 100 µM
TGI (OVCAR-5 ovarian): > 100 µM
TGI (NCI-H226 lung): > 100 µM
TGI (KM20L2 colon): > 100 µM
TGI (SK-MEL-5 melanoma): 62.9 µM
TGI (RXF-631 renal): > 100 µM
TGI (IGROV1 ovarian): > 100 µM
TGI (HT29 colon): > 100 µM
TGI (ACHN renal): > 100 µM
TGI (HOP-62 NSCLC): > 100 µM
TGI (M19-MEL melanoma): > 100 µM
TGI (MALME-3M melanoma): > 100 µM
TGI (KM12 colon): > 100 µM
TGI (HCT-15 colon): > 100 µM
TGI (DMS 114 small cell lung): 53.2 µM
TGI (EKVX NSCLC): > 100 µM
TGI (DMS 273 small cell lung): > 100 µM
TGI (SNB-75 CNS): > 100 µM
TGI (HL-60(TB) leukemia): > 100 µM
TGI (XF 498 CNS): 87 µM
TGI (M14 melanoma): > 100 µM
TGI (TK-10 renal): > 100 µM
TGI (LOX IMVI melanoma): > 100 µM
TGI (COLO 205 colon): > 100 µM
TGI (SK-MEL-2 melanoma): > 100 µM
TGI (HCC-2998 colon): > 100 µM
